In BindingDB's records for doi:10.7270/Q2KD1WBN (Burnham Center For Chemical Genomics, 2010):

biological target: Envelope glycoprotein gp160 (Human immunodeficiency virus 1, UniProt Q6QLK5); assay: blockers of HIV fusion peptide binding, cell-free – biochemical, fluorescence quenching, SAR follow-up (AID 434967)
Sequence (Q6QLK5 whole entry, the tested form may be a part): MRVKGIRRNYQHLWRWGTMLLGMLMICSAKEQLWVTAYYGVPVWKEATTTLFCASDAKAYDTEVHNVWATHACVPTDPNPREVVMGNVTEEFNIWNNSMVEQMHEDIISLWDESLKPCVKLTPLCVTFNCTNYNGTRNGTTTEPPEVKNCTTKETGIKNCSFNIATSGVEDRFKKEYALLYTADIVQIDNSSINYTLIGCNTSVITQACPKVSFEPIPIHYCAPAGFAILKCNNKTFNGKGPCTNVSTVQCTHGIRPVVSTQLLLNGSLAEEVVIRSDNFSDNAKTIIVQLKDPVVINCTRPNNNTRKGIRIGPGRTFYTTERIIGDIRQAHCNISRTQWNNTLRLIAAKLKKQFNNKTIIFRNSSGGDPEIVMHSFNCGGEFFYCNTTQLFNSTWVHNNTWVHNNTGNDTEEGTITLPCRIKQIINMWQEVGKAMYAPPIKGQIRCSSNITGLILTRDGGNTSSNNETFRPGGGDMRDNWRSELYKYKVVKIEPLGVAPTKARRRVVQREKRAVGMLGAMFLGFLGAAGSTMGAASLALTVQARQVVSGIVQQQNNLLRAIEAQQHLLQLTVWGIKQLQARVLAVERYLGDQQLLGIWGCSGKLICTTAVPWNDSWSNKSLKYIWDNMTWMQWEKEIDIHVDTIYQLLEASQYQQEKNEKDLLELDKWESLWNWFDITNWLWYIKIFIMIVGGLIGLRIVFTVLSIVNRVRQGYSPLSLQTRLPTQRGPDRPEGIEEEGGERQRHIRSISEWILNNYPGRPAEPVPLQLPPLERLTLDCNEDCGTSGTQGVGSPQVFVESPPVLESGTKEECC

Point of comparison: `Cc1c(Cl)cccc1NS(=O)(=O)c1ccc2c(c1)C1C=CCC1C(c1ccc(C(=O)O)cc1)N2` (stereo not drawn), IC50 3.16 µM. Against it:
- CS(=O)(=O)C1=NSC2=NC(=O)/C(=C\c3ccc(OS(=O)(=O)c4ccccc4)cc3)C(=N)N21 — 2.4-fold higher, 7.73 µM
- O=C1NC(=S)N(C2CCCCC2)C(=O)C1=CNNC(=O)c1ccccc1O [N'-[(E)-(1-cyclohexyl-4,6-dioxo-2-sulfanylidene-1,3-diazinan-5-ylidene)methyl]-2-hydroxybenzohydrazide] — 2.8-fold higher, 9 µM
- Cc1ccc(-n2cccc2/C=C2/C(=N)N3C(=NC2=O)SN=C3S(C)(=O)=O)cc1Cl [MLS000583163] — 1.8-fold higher, 5.76 µM
- COc1cc(/C=C2\SC(=O)N(c3ccccc3Cl)C2=O)cc([N+](=O)[O-])c1O — 2.9-fold higher, 9.04 µM
- O=c1/c(=C/c2cc([N+](=O)[O-])cc([N+](=O)[O-])c2O)sc2nc3ccccc3n12 [2-[(2-hydroxy-3,5-dinitrophenyl)methylidene]-1-thiazolo[3,2-a]benzimidazolone] — within 1.5-fold, 2.61 µM
- CCOC(=O)C1=C(C)N=c2sc(=Cc3ccc(OCC(=O)O)cc3)c(=O)n2C1c1ccc(OC(C)C)cc1 (stereo not drawn) [2-[4-[[6-ethoxycarbonyl-7-methyl-3-oxo-5-(4-propan-2-yloxyphenyl)-5H-[1,3]thiazolo[3,2-a]pyrimidin-2-ylidene]methyl]phenoxy]acetic acid] — 2.1-fold higher, 6.64 µM
- CC(C)(C)c1cc(-c2cs/c(=N\c3ccccc3)n2Cc2ccc(C(=O)O)cc2)cc(C(C)(C)C)c1O [4-[[4-(3,5-ditert-butyl-4-oxidanyl-phenyl)-2-phenylazanyl-1,3-thiazol-3-ium-3-yl]methyl]benzoic acid;bromide] — 8.6-fold higher, 27.3 µM
- O=C1Nc2ccc([N+](=O)[O-])cc2C1=NNc1ccccc1C(=O)O [2-[2-(5-nitro-2-oxidanylidene-indol-3-yl)hydrazinyl]benzoic acid] — 4.2-fold higher, 13.3 µM
- CCOc1cc(/C=C2\SC(=O)N(CC(=O)Nc3ccccc3F)C2=O)cc([N+](=O)[O-])c1O — within 1.5-fold, 4.32 µM
- Cc1ccc(-n2c(O)c(C=Nc3ccccc3-c3n[nH]c(=S)[nH]c3=O)c3ccccc3c2=O)c(C)c1 [SMR000370443] — 1.8-fold higher, 5.76 µM
- CCOC(=O)c1sc(N2C(=O)C(=O)C(C(=O)c3ccc(C)o3)C2c2cccc([N+](=O)[O-])c2)nc1C (stereo not drawn) [ethyl 4-methyl-2-[3-(5-methylfuran-2-yl)carbonyl-2-(3-nitrophenyl)-4-oxidanyl-5-oxidanylidene-2H-pyrrol-1-yl]-1,3-thiazole-5-carboxylate] — 3.3-fold higher, 10.5 µM
- O=C(O)CCCN1C(=O)/C(=C/c2ccc(-c3nc4ccccc4s3)o2)SC1=S [4-[(5Z)-5-[[5-(1,3-benzothiazol-2-yl)furan-2-yl]methylidene]-4-oxo-2-sulfanylidene-1,3-thiazolidin-3-yl]butanoic acid] — 1.8-fold lower, 1.76 µM
- CCS(=O)(=O)C1=NSC2=NC(=O)/C(=C\c3ccc(OS(=O)(=O)c4ccccc4)cc3)C(=N)N21 [MLS-0362442.0001] — 3.6-fold higher, 11.5 µM
- CSc1nnc(-c2ccccc2N=Cc2c(C)[nH]n(-c3ccc4ccccc4c3)c2=O)c(=O)[nH]1 [MLS000540062] — 3.1-fold higher, 9.84 µM
- Cc1cc(C)cc(-n2cccc2/C=C2/C(=N)N3C(=NC2=O)SN=C3S(C)(=O)=O)c1 [(6Z)-5-azanylidene-6-[[1-(3,5-dimethylphenyl)pyrrol-2-yl]methylidene]-3-methylsulfonyl-[1,2,4]thiadiazolo[4,5-a]pyrimidin-7-one] — 2.5-fold higher, 7.81 µM
- CC1(C)CC(=O)C2=C(C1)c1c(ccc3ccccc13)NC2c1cc([N+](=O)[O-])cc([N+](=O)[O-])c1O (stereo not drawn) [MLS000716265] — 4.3-fold higher, 13.5 µM
- COc1cc(/C=N/NS(=O)(=O)c2ccc3ccccc3c2)ccc1OCc1ccc(C(=O)O)cc1 [MLS-0298745.0001] — 2.5-fold higher, 7.76 µM
- CS(=O)(=O)C1=NSC2=NC(=O)/C(=C\c3cccn3-c3ccc(Cl)cc3)C(=N)N21 — 1.8-fold higher, 5.7 µM
- O=C1NC(=S)N(c2ccc(F)cc2)C(=O)C1=Cc1ccoc1 [SMR000270574] — 2.7-fold higher, 8.59 µM
- N#C/C(=C\C1C=CC(=O)C([N+](=O)[O-])=C1)c1nc2ccccc2s1 (stereo not drawn) — 2-fold higher, 6.25 µM
- CC(C)S(=O)(=O)C1=NSC2=NC(=O)/C(=C\c3ccc(-c4ccccc4)o3)C(=N)N21 [(6Z)-5-imino-6-[(5-phenyl-2-furanyl)methylidene]-3-propan-2-ylsulfonyl-[1,2,4]thiadiazolo[4,5-a]pyrimidin-7-one] — 3.1-fold higher, 9.65 µM
- O=C1NC(=S)N(c2ccc(F)cc2)C(=O)C1=Cc1ccco1 [(5E)-1-(4-fluorophenyl)-5-(2-furanylmethylidene)-2-sulfanylidene-1,3-diazinane-4,6-dione] — 3.2-fold higher, 10 µM
- CCC(Sc1nc2ccsc2c(=O)n1Cc1ccc(C(=O)O)cc1)C(=O)Nc1ccc(C)c(Cl)c1 (stereo not drawn) — 2.5-fold higher, 8.01 µM
- Cc1c2c(=O)n(-c3nc4ccccc4s3)[nH]c2cc(=O)n1Cc1ccccc1 [MLS000762993] — 3.2-fold higher, 10.1 µM
- CC(C)S(=O)(=O)C1=NSC2=NC(=O)/C(=C\c3ccc(-c4cccc(C(=O)O)c4)o3)C(=N)N21 [3-[5-[(Z)-(5-imino-7-oxo-3-propan-2-ylsulfonyl-[1,2,4]thiadiazolo[4,5-a]pyrimidin-6-ylidene)methyl]furan-2-yl]benzoic acid] — within 1.5-fold, 4.49 µM
- O=C(O)c1ccccc1C(=O)N(Cc1cccc(Oc2ccc(Cl)cc2)c1)[C@H]1CCCc2ccccc21 [2-[[[3-(4-chlorophenoxy)phenyl]methyl-[(1S)-1,2,3,4-tetrahydronaphthalen-1-yl]amino]-oxomethyl]benzoic acid] — within 1.5-fold, 2.6 µM
- COc1ccc(OC)c(N2C(=O)C(=Cc3ccco3)C(=O)NC2=S)c1 [MLS001197216] — 1.9-fold higher, 6.06 µM
- COc1ccccc1NS(=O)(=O)c1cccc(-n2c(O)c(C=Nc3ccccc3C(=O)O)c3ccccc3c2=O)c1 [MLS000776209] — 3.1-fold higher, 9.64 µM
- COc1cc(CN=Nc2ccc(Cl)c(C(=O)O)c2)ccc1OC(=O)c1ccccc1F [SMR000589905] — 8.2-fold higher, 25.9 µM
- O=[N+]([O-])c1cc([N+](=O)[O-])c2oc(-c3ccccc3)c(Br)c2c1O [3-bromanyl-5,7-dinitro-2-phenyl-1-benzofuran-4-ol] — 4.6-fold higher, 14.5 µM
- COc1cc(CN=Nc2ccc(Cl)c(C(=O)O)c2)ccc1OC(=O)c1ccc(F)cc1 [2-chloro-5-[2-[[4-[(4-fluorophenyl)-oxomethoxy]-3-methoxyphenyl]methylidene]hydrazinyl]benzoic acid] — 2.5-fold higher, 8.03 µM
- CCC(C)(C)C1CCc2c(sc(NC(=O)c3ccccc3C(=O)O)c2C#N)C1 (stereo not drawn) [2-[[3-cyano-6-(2-methylbutan-2-yl)-4,5,6,7-tetrahydro-1-benzothiophen-2-yl]carbamoyl]benzoic acid] — 1.9-fold higher, 6.1 µM
- O=C(O)c1cc(N=NCc2ccc(-c3ccccc3)cc2)ccc1Cl [MLS-0319671.0001] — 4.7-fold higher, 14.8 µM
- CC(C)NC(=O)c1sc(=S)n2c1[nH]c(=O)c1ccc(C(=O)NCCc3ccc(Cl)cc3)cc12 [N8-[2-(4-chlorophenyl)ethyl]-5-oxidanylidene-N3-propan-2-yl-1-sulfanylidene-4H-[1,3]thiazolo[3,4-a]quinazoline-3,8-dicarboxamide] — 3-fold higher, 9.56 µM
- Cc1ccc(S(=O)(=O)Oc2ccc(/C=C3/C(=N)N4C(=NC3=O)SN=C4S(C)(=O)=O)cc2)cc1 [4-methylbenzenesulfonic acid [4-[(Z)-(5-imino-3-methylsulfonyl-7-oxo-[1,2,4]thiadiazolo[4,5-a]pyrimidin-6-ylidene)methyl]phenyl] ester] — 2.1-fold higher, 6.51 µM
- COC(=O)c1sc(-c2ccc(C(C)(C)C)cc2)cc1NC(=O)c1ccccc1C(=O)O [SMR000456098] — 1.9-fold higher, 5.94 µM
- COc1ccc(C(=O)Oc2ccc(CN=Nc3ccc(Cl)c(C(=O)O)c3)cc2OC)cc1 [SMR000589907] — 1.6-fold higher, 5.16 µM
